Among the test systems are A549; ACHN; DMS-114; EKVX; HCC 2998; HCT-15; HOP-92; LOX IMVI; NCI-H226; OVCAR-3; SF-539; SK-MEL-28; SN12C; SNB-19; SNB-78; SW-620; Hs-578T; MDA-MB-231; T47D.
Holding throughout (test): NCI tumour cell line growth inhibition, 48 h

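Five compound concentrations were applied to cells in 96-well plates for 48 hours; endpoints were derived by simple linear interpolation of the resulting dose-response curve. GI50 marks 50% less growth.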 Activity calls are given as the source filed them. No stated cut-off is given here; in the data, active = GI50 up to about 1.1 µM and inactive = higher. Bounds are passed on as bounds.

In the case of `CCCCCCCCCCCCCCCC(=O)OCC1OC(n2cc(F)c(=O)[nH]c2=O)C(NC(=O)N(CCCl)N=O)C(O)C1O` (centres undefined), the GI50 in the assay on A549 was 0.767 µM (active); in the assay with ACHN it was 1.64 µM (inactive); with DMS-114, 1.12 µM (inactive); in the assay on EKVX, 2.58 µM (inactive); in the assay with HCC 2998, 2.71 µM (inactive); with HCT-15, 4.95 µM. In addition, the GI50 is 3.65 µM (inactive) with HOP-92; 0.157 µM (active) in the assay on LOX IMVI; 10.4 µM (inactive) in the assay with NCI-H226; 8.04 µM (inactive) in the assay with OVCAR-3; 0.122 µM (active) in the assay on SF-539; 2.37 µM (inactive) in the assay on SK-MEL-28. Moreover, the GI50 is 2.07 µM (inactive) in the assay on SN12C, 0.979 µM (active) in the assay with SNB-19, 3.85 µM (inactive) with SNB-78 and 1.31 µM (inactive) in the assay with SW-620.

For `COc1cc(-c2cccs2)sc1-c1cccs1`, the GI50 with A549 is 33.3 µM (inactive); in the assay with ACHN, 53.5 µM (inactive); in the assay on DMS-114, 30 µM (inactive); in the assay on EKVX, 6.55 µM (inactive); with HCC 2998, 26.7 µM (inactive); in the assay on HCT-15, 4.4 µM. Further, the GI50 in the assay with HOP-92 is 24.5 µM (inactive); with LOX IMVI, 46.2 µM (inactive); with NCI-H226 it was 43.5 µM (inactive); with OVCAR-3, 63.8 µM (inactive); in the assay on SF-539, 73.8 µM (inactive); in the assay on SK-MEL-28, 34 µM (inactive). The GI50 with SN12C is 81.8 µM (inactive); with SNB-19, > 100 µM (inactive); in the assay on SNB-78, 36.2 µM (inactive); in the assay with SW-620 it was 71.1 µM (inactive).

Turning to `O=C(Nc1nnn[nH]1)c1nc(O)cc(-c2ccccc2)n1`, the GI50 in the assay on A549, in the assay on ACHN, in the assay on DMS-114, in the assay on EKVX, in the assay on HCC 2998 and in the assay on HOP-92 was > 100 µM (inactive) throughout. The GI50 with NCI-H226, with OVCAR-3, in the assay with SK-MEL-28, with SN12C, in the assay on SNB-19 and in the assay on SNB-78 was > 100 µM (inactive) each time. Moreover, the GI50 in the assay on SW-620 was > 100 µM (inactive).

As for `Cc1cc(-c2c(F)cc3c4nn([C@H]5CC[C@@H](N(C)C)CC5)c(=O)c-4cn(C4CC4)c3c2F)cc(C)n1`, the GI50 was 0.161 µM (active) with A549; 0.214 µM (active) with ACHN; 0.024 µM (active) in the assay on DMS-114; 2.06 µM (inactive) in the assay with EKVX; 0.29 µM (active) in the assay on HCC 2998; 1.74 µM in the assay on HCT-15. In addition, the GI50 with HOP-92 was 0.0453 µM (active); in the assay on Hs-578T it was 0.173 µM (active); in the assay on LOX IMVI, 0.0998 µM (active); with MDA-MB-231, 0.536 µM (active); in the assay with NCI-H226, 0.101 µM (active); with OVCAR-3 it was 0.805 µM (active). The GI50 in the assay with SF-539 is 0.177 µM (active); in the assay with SK-MEL-28, 0.687 µM (active); with SN12C, 0.168 µM (active); in the assay on SNB-19 it was 0.309 µM (active); in the assay on SNB-78, 0.28 µM (active); with SW-620, 0.195 µM (active). For the same compound, in the assay on T47D, the GI50 was 0.347 µM (active).

For the compound `CC(=O)NNc1nc(C)c(C(=O)NNC(=O)C(=O)Nc2ccc(C)cc2[N+](=O)[O-])s1`, the GI50 in the assay on A549 is > 100 µM (inactive); with ACHN it was > 100 µM (inactive); in the assay on DMS-114, > 100 µM (inactive); in the assay on EKVX it was > 100 µM (inactive); with HCC 2998, > 100 µM (inactive); in the assay on HCT-15, > 100 µM. Also, the GI50 with HOP-92 is > 100 µM (inactive); with LOX IMVI, 56.4 µM (inactive); in the assay with NCI-H226 it was > 100 µM (inactive); with OVCAR-3 it was 47.8 µM (inactive); in the assay with SF-539, > 100 µM (inactive); in the assay with SK-MEL-28, > 100 µM (inactive). Besides, the GI50 in the assay on SN12C, with SNB-19, in the assay with SNB-78 and in the assay with SW-620 was > 100 µM (inactive) in each case.

Take `S=c1sc2c(Cl)nc(Cl)nc2n1-c1ccccc1`: the GI50 in the assay with A549 is > 100 µM (inactive); in the assay with ACHN, > 100 µM (inactive); in the assay on DMS-114, 14.2 µM (inactive); with EKVX, 61 µM (inactive); in the assay with HCC 2998 it was 52.4 µM (inactive); in the assay with HCT-15 it was 18.1 µM. Besides, the GI50 is > 100 µM (inactive) in the assay on HOP-92; 34.8 µM (inactive) in the assay on LOX IMVI; 61.2 µM (inactive) with NCI-H226; 22.9 µM (inactive) with OVCAR-3; > 100 µM (inactive) with SF-539; 15.6 µM (inactive) in the assay with SK-MEL-28. Moreover, the GI50 in the assay on SN12C was 46.2 µM (inactive); with SNB-19, > 100 µM (inactive); with SNB-78 it was 13.3 µM (inactive); in the assay on SW-620, 27.2 µM (inactive).

On to `CC(C)C12C=CC(C)(CC1)n1c(=O)c3cc4ccccc4cc3c(=O)n12` (centres undefined), for which the GI50 in the assay with A549 was 45.4 µM (inactive); in the assay with ACHN, 36.4 µM (inactive); with DMS-114, 41.9 µM (inactive); in the assay with EKVX it was 43.5 µM (inactive); in the assay on HCC 2998 it was 33.7 µM (inactive); in the assay on HCT-15, 33.3 µM. The GI50 in the assay on HOP-92 was 38.5 µM (inactive); with LOX IMVI, 41.9 µM (inactive); in the assay on NCI-H226, 40.6 µM (inactive); with OVCAR-3 it was 46.2 µM (inactive); in the assay on SF-539, 66.7 µM (inactive); in the assay on SK-MEL-28, > 100 µM (inactive). Further, the GI50 is 34.7 µM (inactive) in the assay with SN12C, 40.5 µM (inactive) in the assay with SNB-19, > 100 µM (inactive) in the assay with SNB-78 and 60.1 µM (inactive) with SW-620.

Take `Cc1cccc2c1C(=O)OC2(C)c1cccc2ccccc12` (centres undefined): the GI50 in the assay with A549 is 35.2 µM (inactive); in the assay on ACHN, 30.6 µM (inactive); in the assay on DMS-114 it was 43.1 µM (inactive); in the assay with EKVX it was 35.7 µM (inactive); in the assay on HCC 2998 it was 20.9 µM (inactive); with HCT-15, 29 µM. The GI50 in the assay with HOP-92 is 18.6 µM (inactive); with LOX IMVI, 30.3 µM (inactive); in the assay with NCI-H226 it was 26.5 µM (inactive); in the assay with OVCAR-3 it was 26.9 µM (inactive); in the assay with SK-MEL-28, 41.3 µM (inactive); with SN12C, 21.2 µM (inactive). Moreover, the figures for the GI50 in the assay on SNB-19, in the assay on SNB-78 and in the assay with SW-620 were 78.5 µM (inactive), 73.6 µM (inactive) and 30.3 µM (inactive), respectively.

As to `C=CCCCCCCCCC(=O)NS(=O)(=O)c1ccccc1`, the GI50 is 57.7 µM (inactive) in the assay with A549; 71 µM (inactive) with ACHN; > 100 µM (inactive) with DMS-114; > 100 µM (inactive) in the assay on EKVX; > 100 µM (inactive) with HCC 2998; 56.9 µM (inactive) in the assay with HOP-92. In addition, the GI50 was > 100 µM (inactive) in the assay on LOX IMVI; > 100 µM (inactive) in the assay with NCI-H226; > 100 µM (inactive) with OVCAR-3; > 100 µM (inactive) in the assay with SF-539; 99.3 µM (inactive) in the assay on SK-MEL-28; > 100 µM (inactive) in the assay with SN12C. The GI50 in the assay with SNB-19, in the assay on SNB-78 and in the assay on SW-620 was > 100 µM (inactive) throughout.

On to `CC(C)c1ccccc1NC(=O)/C(Cl)=C1/Sc2ccccc2NC1=O`, for which the GI50 with A549 is 32.3 µM (inactive); with ACHN, 37.4 µM (inactive); in the assay on DMS-114, 18.5 µM (inactive); with EKVX it was 49.1 µM (inactive); with HCC 2998, 23.6 µM (inactive); with HCT-15, 22.8 µM. The GI50 with HOP-92 was 11.6 µM (inactive); in the assay with LOX IMVI it was 29.2 µM (inactive); in the assay on NCI-H226 it was 26.9 µM (inactive); with SF-539, 21.9 µM (inactive); with SK-MEL-28, 33.4 µM (inactive); in the assay on SN12C it was 34 µM (inactive). Also, the values for the GI50 in the assay on SNB-19, in the assay on SNB-78 and with SW-620 were 38.5 µM (inactive), 30.5 µM (inactive) and 25.2 µM (inactive), respectively.

Turning to `COc1ccc(C=O)c([N+](=O)[O-])c1`, the GI50 in the assay on A549 was > 100 µM (inactive); with ACHN, 58.6 µM (inactive); in the assay on DMS-114, 24 µM (inactive); with EKVX, 99.5 µM (inactive); with HCC 2998, > 10 µM (inactive); in the assay on HCT-15 it was 9.27 µM. Also, the GI50 is 81.3 µM (inactive) with HOP-92; 22.1 µM (inactive) in the assay with LOX IMVI; 44 µM (inactive) with NCI-H226; 27.9 µM (inactive) in the assay on OVCAR-3; 20.4 µM (inactive) in the assay with SF-539; > 100 µM (inactive) in the assay on SK-MEL-28. In addition, the GI50 in the assay with SN12C was 41.7 µM (inactive); in the assay on SNB-19, 64.6 µM (inactive); in the assay with SNB-78, 42.4 µM (inactive); in the assay with SW-620, 8.24 µM (inactive).

Consider `CCOC(=O)C1S/C(=N/c2ccc(Cl)cc2C)N=C1C` (centres undefined), for which the GI50 in the assay with A549 is 21.4 µM (inactive); with ACHN it was 19.8 µM (inactive); in the assay on DMS-114, 12.9 µM (inactive); in the assay on EKVX, 32.2 µM (inactive); with HCC 2998, 20.7 µM (inactive); in the assay with HCT-15 it was 18.5 µM. Moreover, the GI50 in the assay on HOP-92 is 15.5 µM (inactive); in the assay with LOX IMVI it was 15 µM (inactive); with NCI-H226, 24 µM (inactive); in the assay on OVCAR-3 it was 20.8 µM (inactive); with SF-539, 17.6 µM (inactive); with SK-MEL-28, 25.2 µM (inactive). Moreover, the GI50 was 18.5 µM (inactive) in the assay on SN12C, 26.6 µM (inactive) in the assay with SNB-19, 20.4 µM (inactive) in the assay with SNB-78 and 22.3 µM (inactive) in the assay with SW-620.

For `COc1ccc(C2Oc3c(cc(O)c(OC)c3C)[C@@H]2C)cc1OC` (some centres undefined), the GI50 was > 100 µM (inactive) in the assay on A549; > 100 µM (inactive) in the assay on ACHN; 33 µM (inactive) in the assay on DMS-114; > 100 µM (inactive) in the assay on EKVX; > 100 µM (inactive) with HCC 2998; > 10 µM in the assay on HCT-15. The GI50 was 43 µM (inactive) in the assay with HOP-92; 82.6 µM (inactive) in the assay with LOX IMVI; > 100 µM (inactive) in the assay with NCI-H226; > 100 µM (inactive) in the assay with OVCAR-3; > 100 µM (inactive) in the assay on SF-539; > 100 µM (inactive) in the assay on SK-MEL-28. Besides, the GI50 is > 100 µM (inactive) in the assay with SNB-19, 69.8 µM (inactive) with SNB-78 and 71 µM (inactive) in the assay with SW-620.

Values taken from ChEMBL document CHEMBL1201862, “PubChem BioAssay data set” (2004).
